SMILES | melting point [°C]
CCOC(=O)C(C#N)=CNc1ncccc1Cl | 140 to 142
CNC(=O)OC1CCN(C(=O)Oc2ccc(Oc3ccccc3)cc2)CC1 | 117 to 119
CC1Cc2c(N3CCCC(O)C3)c(F)cc3c(=O)c(C(=O)O)cn1c23 (stereo unspecified) | 251 to 253
Cn1nc(-c2ccc(O)cc2)ccc1=O | 242 to 245
O=C1NCCCN1C1(CO)CCN(Cc2ccccc2)CC1 | 210
NS(=O)(=O)c1ccc(-n2nc(C(F)(F)F)cc2-c2nc3cccc(F)c3s2)cc1 | 251 to 253
Cc1cc(N2CCN(c3c(C)c(C)c4c(c3C)CC(C)(C)O4)CC2)ccc1F | 143 to 145
Cc1c(C(C)(C)C)cc(C(C)C)c(-c2c(C(C)C)cc(C(C)(C)C)c(C)c2O)c1O | 105 to 108
COCOc1ccc(C=O)cc1OC | 39 to 40
Brc1cncc2cccnc12 | 79 to 81
O=c1c(OCCO)c(-c2ccc(OCc3ccccc3)c(OCc3ccccc3)c2)oc2cc(OCc3ccccc3)ccc12 | 137
Cc1c(C(F)(F)F)[nH]c(=O)n(-c2ccc(Br)cc2F)c1=O | 188 to 189
COc1cc(Oc2nn(C)c(C(F)(F)F)c2Cl)ccc1[N+](=O)[O-] | 71 to 73.5
COc1cccc(N2CCCN(c3ccnc4sc(C(N)=O)c(N)c34)CC2)c1 | 193 to 195
CC(C)Oc1ncc(OC(=O)C2(C)CC2)cc1Cl | 116 to 117
CC12CCC(=O)C=C1CCC1C3CC(OCCOC4CCCCO4)C(O)(C(=O)CO)C3(C)CC(O)C12F (stereo unspecified) | 196 to 200
C=CCc1cc(-c2cc(CC)cc(CC=C)c2O)ccc1O | 47 to 48
CN1CCN(C2=Cc3ccccc3Sc3cc(Cl)c(Cl)cc32)CC1 | 157 to 159
CCOC(=O)c1sc(Br)c(Br)c1Cl | 58 to 63
Cc1nc2ccccc2c2c1OC(C)CN2 (stereo unspecified) | 169 to 170
CCOC(=O)c1c(CN(CC)CC)nc2cc(OC)c(OC)cc2c1-c1ccc(F)cc1 | 102 to 103
CCCCCCCCCCCCCCCNC(=O)OCCOCCOCCOC(=O)N(Cc1ccccn1)C(C)=O | 42 to 43
COc1nc(OC)c(C(C)C)c(C(=O)c2cc(C)cc(Cl)c2)n1 | 119 to 120

SMILES | melting point [°C]
Cc1ccccc1-c1c(C#N)nn(-c2c(Cl)cc(C(F)(F)F)cc2Cl)c1N | 199 to 202
O=C=Nc1ccc2c(c1)C(=O)CC2 | 72
O=C1CCC(n2cnc3ccc(Cl)cc3c2=O)C(=O)N1 (stereo unspecified) | 302 to 305
CCOC(=O)C(=CNc1nonc1C)C(=O)c1cc(F)c(Cl)nc1Cl | 139 to 142
CC(O)CN1N=CCCC1c1ccc(Cl)c(Cl)c1 (stereo unspecified) | 75 to 77
CC(NNC=NN)C(=O)O (stereo unspecified) | 239 to 241
COc1cc2c(cc1-n1cccc1)C(Nc1ccc(F)c(Cl)c1)=C(C#N)CN2 | 192 to 194
CCN1CSCN(CC)C1=S | 94 to 97
COc1cc2cc(-c3c[nH]c4ccccc34)cnc2cc1OC | 204 to 206
COc1cc(-n2nc(C#N)cc2-c2ccc(S(C)(=O)=O)cc2)ccc1Cl | 203 to 205
O=C1NC(=O)C(Sc2ccc(Cl)cc2)S1 (stereo unspecified) | 109 to 110
FC(F)(F)c1ccc(-n2nnnc2Nc2ccc(C(F)(F)F)cc2Cl)cc1 | 116
CNC1c2c(O)c(C)cc(C)c2C2CCCCC21 (stereo unspecified) | 110 to 111
O=[N+]([O-])c1cccc2cc(-c3nccs3)[nH]c12 | 130 to 131
CC(C)=CC(C)(S)[C@@H](NC=O)C(=O)O (stereo partly specified) | 183 to 184
CC(C(=O)O)c1ccc(CC(C)C(C)O)cc1 (stereo unspecified) | 85 to 88
N#Cc1cc(Oc2ccc(Cl)cc2)ccc1[N+](=O)[O-] | 120 to 122
CCCCCCCCCCCCCCCCNC(=O)c1cc(OCCBr)c2ccccc2c1O | 91 to 93
COC(=O)Cc1ccnc(NC=O)n1 | 103 to 107
CC(=O)OCC1COc2c(cc(Cl)cc2[N+](=O)[O-])N1 (stereo unspecified) | 76 to 84
COc1cc(-c2cc(F)cc(C#N)c2)cc2c1NC(=O)OC2(C)C | 252 to 253
NS(=O)(=O)c1ccc(-n2nc(C(F)(F)F)cc2-c2ccc(F)cc2)cc1F | 127 to 130

More lines, now with the values ahead:

melting point [°C] | SMILES
150 to 151 | COc1cc(OC)nc(NC(=O)NS(=O)(=O)c2sccc2C(CCl)OC(C)=O)n1 (stereo unspecified)
189 to 191 | CC(C(=O)Nc1ccc2c(c1)OCO2)N1CCN(c2ccccn2)CC1 (stereo unspecified)
176 to 177 | CC(=O)ON=C1Cc2ccccc2N(C(N)=O)c2ccccc21
148 to 150 | Cc1ccc(CCOc2ccc(NC(=O)N(C)C)cc2)nc1
241 to 245 | O=C(O)c1cc(-c2ccnc(Nc3cccc(C(F)(F)F)c3)n2)ccn1
66 to 70 | CC(C)(Oc1ccc(CCCc2cc(-c3ccccc3)no2)cc1)C(=O)O
240 | Cc1ccc(S(=O)(=O)NC(C)(C)CO)cc1NC(=O)c1cnn2c(C(F)(F)F)cc(-c3ccc(C(F)(F)F)cc3)nc12
55 to 56 | COc1ccc(C(C)(C)C)c(O)c1-c1nc2cc(S(=O)(=O)C(F)(F)F)ccc2[nH]1
218 to 219 | CC1(C)C(=O)NC(c2ccc(NC(=O)CCl)cc2)c2ccccc21 (stereo unspecified)
78 to 82 | Cc1ccc(C(O)c2cc3ccncc3[nH]2)cc1 (stereo unspecified)
90 to 92 | OCC1OC(n2c(Cl)nc3c(NCc4ccccc4)ncnc32)C(O)C1O (stereo unspecified)
140 to 145 | CC(=CC(=O)NC(C)(C)C)OC(=O)c1cc(S(C)(=O)=O)c(Cl)cc1NCc1ccco1
118 | C/C(=N\O)c1cccc(NC(=O)NCC(=O)N2[C@@H](C(=O)OC(C)(C)C)CC[C@H]2c2ccccc2)c1 (racemic)
171 | COc1ccc(CCC(=O)c2ccc(O)cc2O)c(OC)c1C
85 to 87 | CC(C)(C)OC(=O)Cn1c(C(=O)c2ccccc2)ccc1-c1ccccc1
220 to 222 | CC(=O)Nc1ccc(S(=O)(=O)Nc2cc(C)on2)cc1
75 to 82 | C[C@H](Cc1ccc2c(c1)OC(C(=O)O)(C(=O)OCCc1ccccc1)O2)NC[C@H](O)c1cccc(Cl)c1 (stereo partly specified)
115 to 117 | Cc1ccc(C(O)(c2ccc(C)cc2)C2CCN(Cc3ccccc3)CC2)cc1
160 to 161 | CCOc1nn(Cc2ccc(OCc3cn4c(-c5ccccc5)cccc4n3)cc2)cc1CCC(=O)O

melting point [°C] | SMILES
133 to 135 | Cc1noc(C)c1S(=O)(=O)n1c(=O)oc2ccccc21
265 to 267 | c1ccc(-c2csc(Nc3cc4ccccc4cn3)n2)cc1
244 to 246 | CC(=O)C(=CNc1cc(Cl)cc(C(=O)O)c1Cl)C(C)=O
> 330 | NNC(=O)C(=O)N(NC(=O)c1cc(Cl)ccc1O)C(=O)c1ccccc1O
115 to 117 | CN(C)C(=O)C1=Cc2cccc(OC[C@@H]3CO3)c2OC1
238 to 239 | Cc1ncn(Cc2ccc(NC(=O)C(F)(F)F)cc2C(F)(F)F)c1C
216 to 220 | CCN1CCNC(=O)c2ccc(Nc3ncc(Cl)c(N[C@@H]4CCCC[C@H]4NS(C)(=O)=O)n3)cc21
162 | O=C(O)CCc1cc2cc(-c3ccc(C(F)(F)F)cc3)ccc2n1S(=O)(=O)c1ccccc1
225 to 226 | O=C(CN1CS(=O)CC1=O)N1CCN(C(c2ccccc2)c2ccccc2)CC1 (stereo unspecified)
214 | Cn1cc(C(=O)c2cccc(Cl)c2)cc1C(=O)O
180 to 182 | CN(NC1=CC(=O)NCC1)c1ccccc1
196 to 197 | Brc1ccc(-c2nnnn2Cc2ccccc2)s1
122 to 125 | NCc1ccc(OCc2ccccc2)c(O)c1
100 to 102 | O=C(O)Cc1cccc(Oc2ccc(Cl)cc2)c1O
64 to 67 | CCC(Cc1ccc(C(=O)OC)cc1)NCC(O)c1ccc(O)c(CO)c1 (stereo unspecified)
205 to 206 | O=C1c2ccccc2C(=O)N1CC(=O)N1c2ccccc2N(Cc2ccc(Cl)cc2)C(=O)[C@H]2CCC[C@H]21 (relative stereo)
225 to 230 | COC(=O)C(C(=O)OC)c1cc(F)cc2c1C(=O)c1cc3ccccc3cc1C2=O
159 to 160 | COc1ccc(S(=O)(=O)Nc2c(Nc3ccccc3)ncnc2OC)cc1
127 to 128 | CCOC(=O)c1cnn(-c2ccc(F)cc2)c1O

melting point [°C] | SMILES
259 to 260 | O=C(O)Cc1c(C(=O)c2ccc(Cl)cn2)[nH]c2ccc(Cl)cc12
150 to 151 | CC1(C)Oc2ccccc2-n2c(CN3CCOCC3)ccc21
207 to 210 | O=C1COc2cc(NCC(=O)N3CCC(Oc4ccc(Cl)cc4)CC3)ccc2N1
208 | O=C(NC(=O)c1ccccc1Cl)Nc1ccc(F)c(C(F)(F)F)c1Cl
262 | Cc1ccc(COc2ccc(CC(NC(=O)c3cn4ccc(-c5ccc(Cl)cc5)cc4n3)C(=O)O)cc2)cc1 (stereo unspecified)
188 to 190 | C#CC1C2=C(c3ccc(OCc4ccccc4[N+](=O)[O-])cc3N1C(=O)Oc1ccccc1)C(O[Si](C)(C)C(C)(C)C)CCC2 (stereo unspecified)
61 to 62 | CCOC(=O)Cc1ccc(C(=O)c2ccccc2)cc1[N+](=O)[O-]
146 | C=C(C)C(=O)OCCOc1ccc(C(=O)O)cc1
265 | CCOC(=O)C1=C(C)NC(C)=C(C#N)C1c1ccnc2ncc(-c3ccccc3)cc12 (stereo unspecified)
150 to 152 | O=C(O)COc1ccc(SCc2ccccc2OCc2ccc(C(F)(F)F)cc2)c2c1CCC2
212 to 214 | O=C(Nc1ccc(O)cc1)Nc1cc(Cl)ccc1C(=O)O
> 290 | Cc1ccc2c3c(c(=O)[nH]c2c1)C(=O)c1ccccc1-3
132 to 133 | CN(c1cccc2cc(C(=O)NCC(C)(CCO)SCc3ccccc3)[nH]c12)S(=O)(=O)c1cccs1 (stereo unspecified)
162 to 163 | COC(=O)C1(S(=O)(=O)N2CCC(c3ccc(Br)c(C)c3)CC2)CCOCC1
201 to 204 | COC(=O)c1cn(-c2ccc(F)cc2)c(C=Cc2cccnc2)cc1=O
61 to 62 | COc1ccc(F)cc1C(C)(C)CC(O)(CN1CC(C)NC(C)C1)C(F)(F)F (stereo unspecified)
160 to 164 | O=C1CCC(=O)C(c2ccccc2)N1 (stereo unspecified)
142 | O=C(Nc1ccc(Cl)cc1)C(CS)Cc1ccccc1 (stereo unspecified)
